According to US12209081B2 (Katholieke Universiteit Leuven, priority 2020, dated 2025):
Counter-ions that a name gives are not always drawn.

Biological target: mouse TRPM3α2 (mTRPM3) ion channel (Mus musculus (Mouse), UniProt J9SQF3)
Test: TRPM3 ion channel driven Ca2+ uptake, Fluo-4 AM assay, mTRPM3alpha2 overexpressing flip-in HEK293 cells stimulated with pregnenolone sulfate
Type: cell-based
Details: PS (50 μM) stimulated, cpds. 608-666
Summary of the method: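 Read-out is Ca2+ influx via Fluo-4 AM fluorescence at 485/535 nm, taken right after seeding ~2000 cells/well onto compound with 50 μM PS. Inhibition computed from RFU between vehicle-stimulated and positive-control-inhibitor wells; cells were mTRPM3α2-overexpressing flip-in HEK293.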

Sequence of mouse TRPM3α2 (mTRPM3) ion channel (J9SQF3 other isoform, or with tags, fused parts or gaps): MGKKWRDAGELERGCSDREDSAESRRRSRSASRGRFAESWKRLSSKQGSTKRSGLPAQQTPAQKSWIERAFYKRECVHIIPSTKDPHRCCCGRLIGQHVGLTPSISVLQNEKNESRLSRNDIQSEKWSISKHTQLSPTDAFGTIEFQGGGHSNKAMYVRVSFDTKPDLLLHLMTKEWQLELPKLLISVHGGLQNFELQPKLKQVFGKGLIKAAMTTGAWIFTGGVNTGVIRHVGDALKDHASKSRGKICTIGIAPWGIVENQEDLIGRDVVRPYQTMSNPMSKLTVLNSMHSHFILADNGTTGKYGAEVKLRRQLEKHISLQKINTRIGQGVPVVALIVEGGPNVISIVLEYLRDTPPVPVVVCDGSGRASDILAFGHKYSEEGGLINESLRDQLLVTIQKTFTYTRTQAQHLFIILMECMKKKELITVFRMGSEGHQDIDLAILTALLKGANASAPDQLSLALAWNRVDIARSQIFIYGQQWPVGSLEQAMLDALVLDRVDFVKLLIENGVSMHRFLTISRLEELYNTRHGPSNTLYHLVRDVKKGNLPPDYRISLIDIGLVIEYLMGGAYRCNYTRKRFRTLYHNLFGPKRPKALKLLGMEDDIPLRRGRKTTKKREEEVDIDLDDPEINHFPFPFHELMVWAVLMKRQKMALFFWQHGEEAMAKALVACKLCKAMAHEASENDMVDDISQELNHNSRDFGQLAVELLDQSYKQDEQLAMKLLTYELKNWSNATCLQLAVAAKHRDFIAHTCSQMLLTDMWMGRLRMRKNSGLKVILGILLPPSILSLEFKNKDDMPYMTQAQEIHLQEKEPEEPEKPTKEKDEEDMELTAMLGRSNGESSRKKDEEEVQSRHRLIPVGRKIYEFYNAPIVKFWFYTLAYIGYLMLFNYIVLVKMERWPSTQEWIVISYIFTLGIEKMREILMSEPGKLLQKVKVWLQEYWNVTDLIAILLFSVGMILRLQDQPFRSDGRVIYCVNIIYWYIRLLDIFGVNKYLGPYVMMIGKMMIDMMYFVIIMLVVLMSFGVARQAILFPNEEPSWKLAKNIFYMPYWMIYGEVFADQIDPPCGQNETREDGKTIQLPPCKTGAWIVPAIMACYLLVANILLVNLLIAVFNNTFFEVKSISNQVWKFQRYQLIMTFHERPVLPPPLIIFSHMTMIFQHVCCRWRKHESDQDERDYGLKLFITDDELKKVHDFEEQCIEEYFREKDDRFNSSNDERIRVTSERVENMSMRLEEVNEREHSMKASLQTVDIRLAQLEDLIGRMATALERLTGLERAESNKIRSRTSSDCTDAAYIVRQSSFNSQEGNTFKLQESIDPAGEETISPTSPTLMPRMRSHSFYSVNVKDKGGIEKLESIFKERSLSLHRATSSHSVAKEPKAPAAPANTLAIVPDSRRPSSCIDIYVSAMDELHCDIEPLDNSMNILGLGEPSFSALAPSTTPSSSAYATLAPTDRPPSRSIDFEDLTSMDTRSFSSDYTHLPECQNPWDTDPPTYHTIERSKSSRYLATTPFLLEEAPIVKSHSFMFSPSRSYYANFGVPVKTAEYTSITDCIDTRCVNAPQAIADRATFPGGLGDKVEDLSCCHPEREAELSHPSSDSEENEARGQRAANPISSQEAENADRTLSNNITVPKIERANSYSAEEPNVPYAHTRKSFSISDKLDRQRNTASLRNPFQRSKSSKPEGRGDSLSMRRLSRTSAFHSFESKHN

IC50 | SMILES
< 1000 nM | Cc1ncsc1C(C)Oc1ccc2oc(C)c(C(=O)NC3(CO)CCOCC3)c2c1 (centres unmarked) [cpd 623-En 1]

Same assay, conditions: PS (50 μM) stimulated, cpds. 667-751

IC50 | SMILES
< 1000 nM | Cc1oc2ccc(OCc3ccccn3)cc2c1C(=O)N[C@H](C(N)=O)[C@@H](C)O [compound 718, N-((2S,3R)-1-amino-3-hydroxy-1-oxobutan-2-yl)-2-methyl-5-(pyridin-2-ylmethoxy)benzofuran-3-carboxamide]
< 1000 nM | Cc1ncsc1COc1ccc2oc(C)c(C(=O)NC3(C(F)F)CCC3)c2c1 [compound 721, N-(1-(Difluoromethyl)cyclobutyl)-2-methyl-5-((4-methylthiazol-5-yl)methoxy)benzofuran-3-carboxamide]
< 1000 nM | Cc1oc2ccc(OCc3ccc(F)cn3)cc2c1C(=O)N[C@@H](CO)C(N)=O [compound 741, (S)-N-(1-Amino-3-hydroxy-1-oxopropan-2-yl)-5-((5-fluoropyridin-2-yl)methoxy)-2-methylbenzofuran-3-carboxamide]
< 1000 nM | Cc1ncsc1COc1ccc2oc(C(F)F)c(C(=O)N[C@@H](CO)C(N)=O)c2c1 [compound 742, (S)-N-(1-amino-3-hydroxy-1-oxopropan-2-yl)-2-(difluoromethyl)-5-((4-methylthiazol-5-yl)methoxy)benzofuran-3-carboxamide]
< 1000 nM | Cc1ccc(COc2ccc3oc(C(F)F)c(C(=O)N[C@@H](CO)C(N)=O)c3c2)cn1 [compound 743, (S)-N-(1-Amino-3-hydroxy-1-oxopropan-2-yl)-2-(difluoromethyl)-5-((6-methylpyridin-3-yl)methoxy)benzofuran-3-carboxamide]
< 1000 nM | NC(=O)[C@H](CO)NC(=O)c1c(C(F)F)oc2ccc(OCc3ccccn3)cc12 [compound 744]
< 1000 nM | Cc1ncc(COc2ccc3oc(C(F)F)c(C(=O)N[C@@H](CO)C(N)=O)c3c2)s1 [compound 745, (S)-N-(1-amino-3-hydroxy-1-oxopropan-2-yl)-2-(difluoromethyl)-5-((2-methylthiazol-5-yl)methoxy)benzofuran-3-carboxamide]
< 1000 nM | Cc1ncc(COc2ccc3oc(C(F)F)c(C(=O)N[C@@H](CO)C(N)=O)c3c2)o1 [compound 746, (S)-N-(1-amino-3-hydroxy-1-oxopropan-2-yl)-2-(difluoromethyl)-5-((2-methyloxazol-5-yl)methoxy)benzofuran-3-carboxamide]
< 1000 nM | NC(=O)[C@H](CO)NC(=O)c1c(C2CC2)oc2ccc(OCc3ccccn3)cc12 [compound 747, (S)-N-(1-Amino-3-hydroxy-1-oxopropan-2-yl)-2-cyclopropyl-5-(pyridin-2-ylmethoxy)benzofuran-3-carboxamide]
< 1000 nM | Cc1ncsc1COc1ccc2oc(C3CC3)c(C(=O)N[C@@H](CO)C(N)=O)c2c1 [compound 748, (S)-N-(1-Amino-3-hydroxy-1-oxopropan-2-yl)-2-cyclopropyl-5-((4-methylthiazol-5-yl)methoxy)benzofuran-3-carboxamide]
< 1000 nM | Cc1ncc(COc2ccc3oc(C4CC4)c(C(=O)N[C@@H](CO)C(N)=O)c3c2)s1 [compound 749, (S)-N-(1-Amino-3-hydroxy-1-oxopropan-2-yl)-2-cyclopropyl-5-((2-methylthiazol-5-yl)methoxy)benzofuran-3-carboxamide]
< 1000 nM | Cc1ccc(COc2ccc3oc(C4CC4)c(C(=O)N[C@@H](CO)C(N)=O)c3c2)cn1 [compound 750, (S)-N-(1-Amino-3-hydroxy-1-oxopropan-2-yl)-2-cyclopropyl-5-((6-methylpyridin-3-yl)methoxy)benzofuran-3-carboxamide]
< 1000 nM | Cc1ncc(COc2ccc3oc(C4CC4)c(C(=O)N[C@@H](CO)C(N)=O)c3c2)o1 [compound 751, (S)-N-(1-amino-3-hydroxy-1-oxopropan-2-yl)-2-cyclopropyl-5-((2-methyloxazol-5-yl)methoxy) benzofuran-3-carboxamide]

Test system: TRPM3
Test: not given
Details: rat pain model; Chen L et al. 2014; cited from earlier work

SMILES | mechanical and cold hyperalgesia
O=C1C[C@@H](c2ccc(O)cc2)Oc2cc(O)ccc21 [Liquiritigenin] | decrease mechanical and cold hyperalgesia

Test system: TRPM3
Test: not given
Details: wild type mice vs knock-out TRPM3 mice; cited from earlier work

SMILES | evoked pain
CC(=O)C1CCC2C3CC=C4CC(OS(=O)(=O)O)CCC4(C)C3CCC12C (centres unmarked) [pregnenolone sulfate, Pregnenolone sulfate] | evoked pain in wild type mice but not in knock-out TRPM3 mice

Biological target: TRPM3 (Homo sapiens (Human), UniProt Q9HCF6)
Test: not given
Details: Wagner et al., 2008; cited from earlier work

Sequence of TRPM3 (Homo sapiens (Human), UniProt Q9HCF6) (Q9HCF6 whole entry, species assumed): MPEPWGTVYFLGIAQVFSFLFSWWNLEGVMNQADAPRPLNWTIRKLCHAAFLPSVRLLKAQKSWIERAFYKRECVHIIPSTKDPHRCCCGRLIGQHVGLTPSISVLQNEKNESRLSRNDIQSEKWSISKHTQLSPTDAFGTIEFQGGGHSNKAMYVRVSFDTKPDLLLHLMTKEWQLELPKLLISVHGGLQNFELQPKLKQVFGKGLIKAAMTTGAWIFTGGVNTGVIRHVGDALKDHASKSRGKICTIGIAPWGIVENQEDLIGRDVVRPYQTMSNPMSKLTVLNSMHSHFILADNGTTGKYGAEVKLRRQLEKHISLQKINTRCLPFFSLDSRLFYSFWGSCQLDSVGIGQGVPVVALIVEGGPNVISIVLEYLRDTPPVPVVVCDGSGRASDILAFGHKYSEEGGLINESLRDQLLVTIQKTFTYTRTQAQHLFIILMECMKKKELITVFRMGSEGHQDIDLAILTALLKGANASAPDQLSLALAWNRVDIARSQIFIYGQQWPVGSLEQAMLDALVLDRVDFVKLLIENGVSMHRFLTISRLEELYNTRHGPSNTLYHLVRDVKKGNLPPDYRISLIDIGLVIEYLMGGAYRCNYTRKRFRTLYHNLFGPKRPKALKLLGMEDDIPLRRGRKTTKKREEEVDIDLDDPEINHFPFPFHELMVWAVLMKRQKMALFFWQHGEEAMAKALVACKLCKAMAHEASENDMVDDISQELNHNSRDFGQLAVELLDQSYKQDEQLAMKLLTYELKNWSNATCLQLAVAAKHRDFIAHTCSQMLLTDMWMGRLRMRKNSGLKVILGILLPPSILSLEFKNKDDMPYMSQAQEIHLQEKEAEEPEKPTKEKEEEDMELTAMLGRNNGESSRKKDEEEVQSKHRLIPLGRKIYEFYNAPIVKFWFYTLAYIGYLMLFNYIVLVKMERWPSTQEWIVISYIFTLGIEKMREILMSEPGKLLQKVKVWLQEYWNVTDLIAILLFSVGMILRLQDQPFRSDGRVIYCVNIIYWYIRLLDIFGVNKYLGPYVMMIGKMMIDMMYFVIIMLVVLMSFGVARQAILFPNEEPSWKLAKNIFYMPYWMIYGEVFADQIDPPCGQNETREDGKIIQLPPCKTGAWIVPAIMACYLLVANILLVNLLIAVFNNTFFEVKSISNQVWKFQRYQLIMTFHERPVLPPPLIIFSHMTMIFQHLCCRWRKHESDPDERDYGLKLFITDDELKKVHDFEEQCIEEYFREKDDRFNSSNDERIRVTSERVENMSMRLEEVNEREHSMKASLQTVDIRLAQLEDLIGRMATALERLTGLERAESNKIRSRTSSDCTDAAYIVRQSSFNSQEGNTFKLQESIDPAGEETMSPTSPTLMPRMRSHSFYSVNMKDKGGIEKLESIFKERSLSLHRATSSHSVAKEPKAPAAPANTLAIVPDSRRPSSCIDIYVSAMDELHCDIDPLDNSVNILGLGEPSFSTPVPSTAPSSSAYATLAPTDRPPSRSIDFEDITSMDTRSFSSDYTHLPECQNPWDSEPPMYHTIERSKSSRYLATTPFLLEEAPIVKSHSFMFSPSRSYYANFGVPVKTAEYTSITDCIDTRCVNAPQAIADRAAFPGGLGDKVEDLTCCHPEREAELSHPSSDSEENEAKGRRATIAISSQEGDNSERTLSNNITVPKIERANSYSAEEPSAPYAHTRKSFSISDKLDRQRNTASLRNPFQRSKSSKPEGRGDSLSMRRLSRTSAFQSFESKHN

SMILES | activator of TRPM3
CC(=O)C1CCC2C3CC=C4CC(OS(=O)(=O)O)CCC4(C)C3CCC12C (centres unmarked) [pregnenolone sulfate, Pregnenolone sulfate] | potent known activator of TRPM3
